These molecules were tested against T1, human M2 receptor (Homo sapiens, UniProt P08172). Conditions: Receptor activity EC50, M2-GIRK1/4 activation test, acetylcholine at EC20; allosteric potency; in some cases mean values from two or more determinations.
T1 sequence (P08172 1-466): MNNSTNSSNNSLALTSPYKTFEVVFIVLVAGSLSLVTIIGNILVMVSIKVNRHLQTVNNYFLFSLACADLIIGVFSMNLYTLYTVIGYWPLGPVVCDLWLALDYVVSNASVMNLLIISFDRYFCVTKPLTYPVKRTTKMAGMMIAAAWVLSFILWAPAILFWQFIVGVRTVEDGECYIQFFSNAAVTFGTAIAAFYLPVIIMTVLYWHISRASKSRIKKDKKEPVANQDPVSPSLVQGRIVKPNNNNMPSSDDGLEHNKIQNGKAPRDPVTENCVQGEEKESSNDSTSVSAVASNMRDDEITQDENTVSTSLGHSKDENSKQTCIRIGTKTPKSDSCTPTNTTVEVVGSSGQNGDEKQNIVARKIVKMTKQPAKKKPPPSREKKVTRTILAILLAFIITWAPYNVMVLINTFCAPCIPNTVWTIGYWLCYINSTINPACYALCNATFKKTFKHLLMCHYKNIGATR
`O=C(NC12CC3CC(CC(F)(C3)C1)C2)c1cn(-c2ccc(F)cc2F)c2nc(N3CC[C@H](F)C3)ccc2c1=O` [Example 62, 1-(2,4-Difluorophenyl)-7-[(3S,)-3-fluoropyrrolidin-1-yl]-N-(3-fluorotricyclo[3.3.1.1^3,7]dec-1-yl)-4-oxo-1,4-dihydro-1,8-naphthyridine-3-carboxamide] was tested, and the EC50 was 17 nM.
Molecule `O=C(NC12CCC(F)(CC1)CC2)c1cn(-c2ccc(F)cc2F)c2nc(N3CC[C@H](F)C3)ccc2c1=O` [Example 63, 1-(2,4-Difluorophenyl)-N-(4-fluorobicyclo[2.2.2]oct-1-yl)-7-[(3S)-3-fluoropyrrolidin-1-yl]-4-oxo-1,4-dihydro-1,8-naphthyridine-3-carboxamide] has an EC50 of 40 nM.
In the case of `CCCC(NC(=O)c1cn(-c2ccc(F)cc2F)c2nc(N3CC[C@H](F)C3)ccc2c1=O)C(F)(F)F` (stereo partly drawn) [Example 66, 1-(2,4-Difluorophenyl)-7-[(3S)-3-fluoropyrrolidin-1-yl]-4-oxo-N-[1,1,1-trifluoropentan-2-yl]-1,4-dihydro-1,8-naphthyridine-3-carboxamide], the EC50 is reported as 10 nM.
With `O=C(NCC(F)(F)F)c1cn(-c2ccc(F)cc2F)c2nc(N3CC[C@H](F)C3)ccc2c1=O` [Example 67, 1-(2,4-Difluorophenyl)-7-[(3S)-3-fluoropyrrolidin-1-yl]-4-oxo-N-(2,2,2-trifluoroethyl)-1,4-dihydro-1,8-naphthyridine-3-carboxamide] the EC50 was 138 nM.
Work on `O=C(NC1(C(F)(F)F)CC1)c1cn(-c2ccc(F)cc2F)c2nc(N3CC[C@H](F)C3)ccc2c1=O` [Example 68, 1-(2,4-Difluorophenyl)-7-[(3S)-3-fluoropyrrolidin-1-yl]-4-oxo-N-[1-(trifluormethyl)cyclopropyl]-1,4-dihydro-1,8-naphthyridine-3-carboxamide] yielded an EC50 of 58 nM.
In the case of `CC(C)C(NC(=O)c1cn(-c2ccc(F)cc2F)c2nc(N3CC[C@H](F)C3)ccc2c1=O)C(F)(F)F` (stereo partly drawn) [Example 69, 1-(2,4-Difluorophenyl)-7-[(3S)-3-fluoropyrrolidin-1-yl]-4-oxo-N-[1,1,1-trifluoro-3-methylbutan-2-yl]-1,4-dihydro-1,8-naphthyridine-3-carboxamide], the EC50 is reported as 13 nM.
In the case of `O=C(NC12CC3CC(CC(C3)C1)C2)c1cn(-c2ccc(F)cc2F)c2nc(N3CC[C@@H](F)C3)ccc2c1=O` [Example 72, 1-(2,4-Difluorophenyl)-7-[(3R)-3-fluoropyrrolidin-1-yl]-4-oxo-N-(tricyclo[3.3.1.1^3,7]dec-1-yl)-1,4-dihydro-1,8-naphthyridine-3-carboxamide], the EC50 is reported as 53 nM.
`O=C(NC12CC3CC(CC(C3)C1)C2)c1cn(-c2ccc(F)cc2F)c2nc(N3CCC(F)(F)C3)ccc2c1=O` [Example 73, 1-(2,4-Difluorophenyl)-7-(3,3-difluoropyrrolidin-1-yl)-4-oxo-N-(tricyclo[3.3.1.1^3,7]dec-1-yl)-1,4-dihydro-1,8-naphthyridine-3-carboxamide] gave an EC50 of 73 nM.
`CC[C@H](NC(=O)c1cn(-c2ccc(F)cc2F)c2nc(N3CCC(F)(F)C3)ccc2c1=O)C(F)(F)F` [Example 75, 1-(2,4-Difluorophenyl)-7-(3,3-difluoropyrrolidin-1-yl)-4-oxo-N-[(2S)-1,1,1-trifluorobutan-2-yl]-1,4-dihydro-1,8-naphthyridine-3-carboxamide] gave an EC50 of 73 nM.
Molecule `O=C(NC12CC3CC(CC(C3)C1)C2)c1cn(-c2ccc(F)cc2F)c2nc(N3CC(F)(F)C(F)(F)C3)ccc2c1=O` [Example 77, 1-(2,4-Difluorophenyl)-4-oxo-7-(3,3,4,4-tetrafluoropyrrolidin-1-yl)-N-(tricyclo[3.3.1.1^3,7]dec-1-yl)-1,4-dihydro-1,8-naphthyridine-3-carboxamide] has an EC50 of 666 nM.
Molecule `CC(C)CC(NC(=O)c1cn(-c2ccc(F)cc2F)c2nc(N3CCS(=O)(=O)C3)ccc2c1=O)C(F)(F)F` (centres unmarked) [Example 78, 1-(2,4-Difluorophenyl)-7-(1,1-dioxido-1,3-thiazolidin-3-yl)-4-oxo-N-[1,1-trifluoro-4-methylpentan-2-yl]-1,4-dihydro-1,8-naphthyridine-3-carboxamide] has an EC50 of 79 nM.
Molecule `O=C(NC12CC3CC(CC(C3)C1)C2)c1cn(-c2ccc(F)cc2F)c2nc(NCCO)ccc2c1=O` [Example 79, 1-(2,4-Difluorophenyl)-7-[(2-hydroxyethyl)amino]-4-oxo-N-(tricyclo[3.3.1.1^3,7]dec-1-yl)-1,4-dihydro-1,8-naphthyridine-3-carboxamide] has an EC50 of 144 nM.
With `CC(C)CC(NC(=O)c1cn(-c2ccc(F)cc2F)c2nc(NCCO)ccc2c1=O)C(F)(F)F` (centres unmarked) [Example 80, 1-(2,4-Difluorophenyl)-7-[(2-hydroxyethyl)amino]-4-oxo-N-[1,1,1-trifluoro-4-methylpentan-2-yl]-1,4-dihydro-1,8-naphthyridine-3-carboxamide] the EC50 was 73 nM.
Work on `CCCC(NC(=O)c1cn(-c2ccc(F)cc2F)c2nc(NCCO)ccc2c1=O)C(F)(F)F` (centres unmarked) [Example 81, 1-(2,4-Difluorophenyl)-7-[(2-hydroxyethyl)amino]-4-oxo-N-[1,1,1-trifluoropentan-2-yl]-1,4-dihydro-1,8-naphthyridine-3-carboxamide] yielded an EC50 of 102 nM.
With `CN(CCO)c1ccc2c(=O)c(C(=O)NC34CC5CC(CC(C5)C3)C4)cn(-c3ccc(F)cc3F)c2n1` [Example 82, 1-(2,4-Difluorophenyl)-7-[(2-hydroxyethyl)(methyl)amino]-4-oxo-N-(tricyclo[3.3.1.1^3,7]dec-1-yl)-1,4-dihydro-1,8-naphthyridine-3-carboxamide] the EC50 was 60 nM.
In the case of `O=C(NC12CC3CC(CC(C3)C1)C2)c1cn(-c2ccc(F)cc2F)c2nc(NCCF)ccc2c1=O` [Example 83, 1-(2,4-Difluorophenyl)-7-[(2-fluoroethyl)amino]-4-oxo-N-(tricyclo[3.3.1.1^3,7]dec-1-yl)-1,4-dihydro-1,8-naphthyridine-3-carboxamide], the EC50 is reported as 110 nM.
In the case of `CC(C)CC(NC(=O)c1cn(-c2ccc(F)cc2F)c2nc(NCCF)ccc2c1=O)C(F)(F)F` (centres unmarked) [Example 88], the EC50 is reported as 42 nM.
`O=C(NC12CC3CC(CC(F)(C3)C1)C2)c1cn(-c2ccc(F)cc2F)c2nc(NCC(F)(F)F)ccc2c1=O` [Example 91, 1-(2,4-Difluorophenyl)-N-(3-fluorotricyclo[3.3.1.1^3,7]dec-1-yl)-4-oxo-7-[(2,2,2-trifluoroethyl)amino]-1,4-dihydro-1,8-naphthyridine-3-carboxamide] gave an EC50 of 58 nM.
For `O=C(NC12CC3CC(F)(CC(F)(C3)C1)C2)c1cn(-c2ccc(F)cc2F)c2nc(NCC(F)(F)F)ccc2c1=O` [Example 92, 1-(2,4-Difluorophenyl)-N-(3,5-difluorotricyclo[3.3.1.1^3,7]dec-1-yl)-4-oxo-7-[(2,2,2-trifluoroethyl)amino]-1,4-dihydro-1,8-naphthyridine-3-carboxamide], the EC50 was 174 nM.
`CC[C@@H](NC(=O)c1cn(-c2ccc(F)cc2F)c2nc(NCC(F)(F)F)ccc2c1=O)C(F)(F)F` [Example 94, 1-(2,4-Difluorophenyl)-4-oxo-N-[(2R)-1,1,1-trifluorobutan-2-yl]-7-[(2,2,2-trifluoroethyl)amino]-1,4-dihydro-1,8-naphthyridine-3-carboxamide] was tested, and the EC50 was 164 nM.
`O=C(NC1(C(F)(F)F)CCCC1)c1cn(-c2ccc(F)cc2F)c2nc(NCC(F)(F)F)ccc2c1=O` [Example 96, 1-(2,4-Difluorophenyl)-4-oxo-7-[(2,2,2-trifluoroethyl)amino]-N-[1-(trifluoromethyl)cyclopentyl]-1,4-dihydro-1,8-naphthyridine-3-carboxamide] showed an EC50 of 134 nM.
For `CN(CCF)c1ccc2c(=O)c(C(=O)NC34CC5CC(CC(C5)C3)C4)cn(-c3ccc(F)cc3F)c2n1` [Example 101, 1-(2,4-Difluorophenyl)-7-[(2-fluoroethyl)(methyl)amino]-4-oxo-N-(tricyclo[3.3.1.1^3,7]dec-1-yl)-1,4-dihydro-1,8-naphthyridine-3-carboxamide], the EC50 was 26 nM.
Molecule `CN(CCF)c1ccc2c(=O)c(C(=O)NC34CC5CC(CC(F)(C5)C3)C4)cn(-c3ccc(F)cc3F)c2n1` [Example 102, 1-(2,4-Difluorophenyl)-7-[(2-fluoroethyl)(methyl)amino]-N-(3-fluorotricyclo[3.3.1.1^3,7]dec-1-yl)-4-oxo-1,4-dihydro-1,8-naphthyridine-3-carboxamide] has an EC50 of 31 nM.
`CC[C@H](NC(=O)c1cn(-c2ccc(F)cc2F)c2nc(N(C)CCF)ccc2c1=O)C(F)(F)F` [Example 103, 1-(2,4-Difluorophenyl)-7-[(2-fluoroethyl)(methyl)amino]-4-oxo-N-[(2S)-1,1,1-trifluorobutan-2-yl]-1,4-dihydro-1,8-naphthyridine-3-carboxamide] showed an EC50 of 50 nM.
Molecule `CCCC(NC(=O)c1cn(-c2ccc(F)cc2F)c2nc(N(C)CCF)ccc2c1=O)C(F)(F)F` (centres unmarked) [Example 106, 1-(2,4-Difluorophenyl)-7-[(2-fluoroethyl)(methyl)amino]-4-oxo-N-[1,1,1-trifluoropentan-2-yl]-1,4-dihydro-1,8-naphthyridine-3-carboxamide] has an EC50 of 32 nM.
For `CC(C)C(NC(=O)c1cn(-c2ccc(F)cc2F)c2nc(N(C)CCF)ccc2c1=O)C(F)(F)F` (centres unmarked) [Example 108, 1-(2,4-Difluorophenyl)-7-[(2-fluoroethyl)(methyl)amino]-4-oxo-N-[1,1,1-trifluoro-3-methylbutan-2-yl]-1,4-dihydro-1,8-naphthyridine-3-carboxamide], the EC50 was 24 nM.

Reference: patent publication US20190367516A1 (Bayer Pharma Aktiengesellschaft, priority 2015, published 2019)
